We go through one compound from patent publication US10179761B2, “Compounds, pharmaceutical composition and their use in treating neurodegenerative diseases” (UNIVERSITE DE LILLE 2 DROIT ET SANTE, priority 2014, dated 2019).

In one assay the test system is SJL/J mice. In words: EAE model, preventive treatment. Format: in vivo. The conditions noted are these: single i.p. injection on day 0, 0.5 or 1 mg/kg; FIG. 3. The source says:
Animals. SJL/J mice were purchased from Janvier (Le Genest-St-Isle, France) and bred under conventional barrier protection at the Pasteur Institute (Lille, France). All experiment protocols and procedures were in compliance with the European Communities Council Directives of 24 Nov. 1986 (86/609/EEC) and were approved by the local ethical committee (CEEA 102009R). Efforts were made to minimize the number of animals used and their suffering. Animals that reached severe hind limb paresis (clinical grade 3) were isolated, and hydration and food access were facilitated.
EAE induction and treatment. The method of EAE induction was similar to previously published methods (Lee-Chang et al., Immunol Lett. 2011 Mar. 30; 135(1-2):108-17). […]
Body weight and clinical signs of EAE were monitored daily. The severity of clinical symptoms was scored based on a standard neurological scoring system for EAE, as follows: grade 0, no disease; grade 1, moderate tail hypotonia and/or slight clumsy gait; grade 2, tail atony and/or clumsy gait; grade 3, severe hind limb paresis; grade 4, paraplegia; grade 5, tetraplegia. […]

Assay [1] deals with Male Swiss mice. As to the kind of experiment: Dizocilpine-induced learning deficits: spontaneous alternation in the Y-maze. The class given is in vivo. How it is done:
(§1) The activity of compound 3.1.10 was evaluated on the prevention of the dizocilpine-induced learning deficits measured using two behavioral tests. The present experiment tested if its anti-amnesic activity could be blocked by pretreatment with the reference sigma-1 receptor antagonist NE-100.
(§2) • Sixty (60) mice were used. Behavioral testing started one week after the arrival of the animals in the AMYLGEN animal facility. • 5 treatment groups were designed and used as follows:
(§3) • Vehicle 1 was physiological saline for dizocilpine, DMSO 2% in water for compound 3.1.10 • Animals were used at day 1 in the Y-maze test and at days 2 and 3 in the passive avoidance test, with training at day 2 and retention at day 3. • Test compounds, compound 3.1.10 and/or NE-100 were administered 10 min before dizocilpine (at 0.15 mg/kg i.p.) or vehicle. • Dizocilpine or vehicle 1 was administered 20 min before the Y-maze test session on day 1. • Dizocilpine or vehicle 1 was administered 20 min before the passive avoidance training session on day 2. Drugs were not injected before the retention session on day 3. • The whole experiment program was performed in a single serie experiment. • Treatments were randomized. 2.1.2. Animals
Male Swiss mice, 6 weeks old and weighing 30-35 g, from JANVIER (Saint Berthevin, France), were housed in groups with access to food and water ad libitum, except during experiments. They were kept in a temperature and humidity controlled animal facility on a 12 h/12 h light:dark cycle (lights on at 7:00 am). […]
Animals were tested for spontaneous alternation performance in the Y-maze, an index of spatial working memory. […] The number of maximum alternations was therefore the total number of arm entries minus two and the percentage of alternation was calculated as: (actual alternations/maximum alternations)×100. […]
All values, except passive avoidance latencies, were expressed as mean±S.E.M. Statistical analyses were performed using two-way ANOVA (F value), with genotype and peptide treatment as independent factors, followed by a Dunn's post-hoc multiple comparison test.

For another assay, the target named is σ1 receptors (Homo sapiens (Human), UniProt Q99720). In words: σ1 binding assay, Jurkat cell membranes, [3H](+)-pentazocine. The conditions noted are these: hydrochloride salts; mean of 2 or 3 independent experiments; Ki from IC50 (Cheng-Prusoff); read-out: Sigma 1 Ki.
Assay [2] relates to Male Swiss mice. In words: Dizocilpine-induced learning deficits: step-through passive avoidance test. The class given is in vivo. Here is the method:
as §1, §2, §3
Male Swiss mice, 6 weeks old and weighing 30-35 g, from JANVIER (Saint Berthevin, France), were housed in groups with access to food and water ad libitum, except during experiments. […]
The apparatus is a two-compartments (15×20×15 cm high) box with one illuminated with white polyvinylchloride walls and the other darkened with black polyvinylchloride walls and a grid floor. […] The step-through latency (the latency spent to enter the dark compartment) and the number of vocalizations was recorded. […] The step-through latency was recorded up to 300 s. When the mouse entered the dark compartment or 300 s has elapsed (they were therefore manually placed in it), the escape latency (latency to exit from the dark compartment) was recorded up to 300 s.
They were therefore analyzed using a Kruskal-Wallis non-parametric ANOVA (H value), followed by a Dunn's multiple comparison test.

Where [3] appears, read: 0.5 mg/kg i.p., 10 min before dizocilpine 0.15 mg/kg i.p.
Setting [4] is: 3.1.10 0.5 mg/kg + NE-100 3 mg/kg + dizocilpine 0.15 mg/kg i.p.

SMILES strings stand for the structures. “Also recorded” adds a separate entry of the source.

Sequence of σ1 receptors (Q99720 whole entry): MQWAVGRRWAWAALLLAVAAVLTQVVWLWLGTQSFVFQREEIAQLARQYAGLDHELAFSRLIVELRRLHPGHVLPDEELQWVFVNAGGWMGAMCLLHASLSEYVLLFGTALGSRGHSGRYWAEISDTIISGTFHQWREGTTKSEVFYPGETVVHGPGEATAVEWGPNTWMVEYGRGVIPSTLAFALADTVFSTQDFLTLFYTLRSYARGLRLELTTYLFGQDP

The term Ki denotes the equilibrium dissociation constant of an inhibitor or competing ligand from its target. Regarding `CN(CCCNC(=O)c1ccc(Cl)cc1)Cc1ccccc1` [Compound 3.1.10, N-[3-(benzylmethylamino)propyl]-4-chlorobenzamide], in the assay on SJL/J mice, the “EAE clinical course, preventive treatment” value is “Amelioration of EAE; also recorded: delaying the onset of EAE”. Further, in the assay with Male Swiss mice [1] (setting [3]), the “dizocilpine-induced learning deficits, Y-maze test” value was “significantly attenuated”. In the assay on Male Swiss mice [1] (setting [4]), the “beneficial effect of compound 3.1.10 with NE-100, Y-maze test” value is “prevented by treatment with the sigma-1 antagonist NE-100”. On σ1 receptors, the Ki was 3.2 nM. The “dizocilpine-induced learning deficits, passive avoidance test” value in the assay with Male Swiss mice [2] (setting [3]) is “significantly attenuated”. The “beneficial effect of compound 3.1.10 with NE-100, passive avoidance test” value in the assay with Male Swiss mice [2] (setting [4]) is on record as “prevented by treatment with the sigma-1 antagonist NE-100”.
